Assay results reported in the NIST ThermoML archive (doi:10.1021/je0604030).
Numbers after ± are expanded uncertainties.

Settings: Liquid, Ebulliometric method (Recirculating still)

SMILES	vapor or sublimation pressure (159.61 K) [kPa]	vapor or sublimation pressure (161.58 K) [kPa]	vapor or sublimation pressure (169.38 K) [kPa]	vapor or sublimation pressure (173.9 K) [kPa]	vapor or sublimation pressure (178.93 K) [kPa]
C [methane]	1567 ± 50	1695 ± 54	2276 ± 73	2672 ± 86	3170 ± 100
FC(F)(F)F [tetrafluoromethane]	243 ± 8	269 ± 9	431 ± 14	517 ± 17	651 ± 21
